Like-named read-outs stand apart in the source and are kept apart here.
Legend:
[1] = Gamma irradiation of aqueous 1% taurolidine solution, radiolysis products; format: physicochemical; settings: approx. 25 gKy, aqueous 1% solution in 500 ml glass bottles; for content after γ-irradiation of a 1% taurolidine solution: IR, HPLC/MS, amino acid analysis
Procedure: Examination of an aqueous 1% taurolidine solution for radiolysis products. After γ-irradiation (approx. 25 gKy) of a 1% taurolidine solution contained in 500 ml glass bottles the following products can be isolated, or quantitatively determined by means of IR spectroscopy, HPLC/MS analysis, amino acid analysis: […]

[2] = system: C2C12 Muscle Myoblast Cells; settings: mouse
Procedure: (§1) In the present report, the acute toxicity of dehydrotaurultam was evaluated compared to taurultam. For this, two different categories of cells (muscle cells and fibroblasts) were incubated with three different concentrations of the two test substances for different periods of time. A possible toxic effect of the test substances on the cells was analyzed 20 hours later. The measures to determine possible cell damage were viability and level of cell adhesion.
(§2) The COS-7 and C2C12 cell lines were plated at 50% confluence on 48 well dishes, and incubated for 24 hours at 37°. Then the media were changed. To this, either unmodified medium (control), or medium containing 0.1%, 0.25% or 0.5% taurultam or dehydrotaurultam was used. The cell cultures were incubated at 37° for 5, 10, 20, 60 and 120 minutes, and then washed three times with fresh medium. After a further 20 hours in the incubator at 37°, the cells were evaluated.
(§3) As a measure of viability, the extent of cell adhesion was evaluated microscopically.
(§4) Cell adhesion was analyzed after 20 hours of incubation with taurultam and dehydrotaurultam respectively.
(§5) Muscle cells were incubated with taurultam or dehydrotaurultam (0.1%, 0.25%, 0.5%) for 5, 10, 20, 60 and 120 minutes at 37°. After rinsing them three times with a regular medium, the cultures were incubated for another 20 h. Then the extent of cells adhesion was examined microscopically.

COS-7 Fibroblasts [3] = system: COS-7 Fibroblasts
Procedure: (§6) For this, two different categories of cells (muscle cells and fibroblasts) were incubated with three different concentrations of the two test substances for different periods of time. A possible toxic effect of the test substances on the cells was analyzed 20 hours later. The measures to determine possible cell damage were viability and level of cell adhesion.
as §2, §3, §4
(§7) Fibroblasts were incubated with taurultam or dehydrotaurultam (0.1%, 0.25%, 0.5%) for 5, 10, 20, 60 and 120 minutes at 37°. After rinsing them three times with a regular medium, the cultures were incubated for another 20 h. Then the extent of adhesion of the cells was examined microscopically.

[4] = system: C2C12 Muscle Myoblast Cells; assay: Acute toxicity: cell adhesion evaluated microscopically; settings: for Adhesion of C2C12 Muscle Myoblast Cells: then 20 h, % of control cultures
Procedure: as §1, §2, §3, §4, §5

COS-7 Fibroblasts [5] = assay: as above; settings: for Adhesion of COS-7 Fibroblasts: then 20 h, % of control cultures
Procedure: as §6, §2, §3, §4, §7

## O=C=O [CO2]
[1]
  amount after γ-irradiation of a 1% taurolidine solution: 9.7 mg
  content after γ-irradiation of a 1% taurolidine solution: 0.0019%

## O=S1(=O)CCN=CN1 [dehydrotaurultam]
[2]; 0.25 %
  cell adhesion, muscle cells: 80%
[2]; 0.5 %
  cell adhesion, muscle cells: 80-90%
[2]; 5 min, 0.1 %
  Adhesion of C2C12 Muscle Myoblast Cells: 100%
[2]; 5 min, 0.25 %
  Adhesion of C2C12 Muscle Myoblast Cells: 100%
[2]; 5 min, 0.5 %
  Adhesion of C2C12 Muscle Myoblast Cells: 100%
[2]; 10 min, 0.1 %
  Adhesion of C2C12 Muscle Myoblast Cells: 100%
[2]; 10 min, 0.25 %
  Adhesion of C2C12 Muscle Myoblast Cells: 100%
[2]; 10 min, 0.5 %
  Adhesion of C2C12 Muscle Myoblast Cells: 100%
[2]; 20 min, 0.1 %
  Adhesion of C2C12 Muscle Myoblast Cells: 100%
[2]; 20 min, 0.25 %
  Adhesion of C2C12 Muscle Myoblast Cells: 90%
[2]; 20 min, 0.5 %
  Adhesion of C2C12 Muscle Myoblast Cells: 90%
[2]; 60 min, 0.1 %
  Adhesion of C2C12 Muscle Myoblast Cells: 100%
[2]; 60 min, 0.25 %
  Adhesion of C2C12 Muscle Myoblast Cells: 80%
[2]; 60 min, 0.5 %
  Adhesion of C2C12 Muscle Myoblast Cells: 90%
[2]; 2 h
  cell adhesion, muscle cells: 80-90%
[2]; 120 min, 0.1 %
  Adhesion of C2C12 Muscle Myoblast Cells: 90%
[2]; 120 min, 0.25 %
  Adhesion of C2C12 Muscle Myoblast Cells: 80%
[2]; 120 min, 0.5 %
  Adhesion of C2C12 Muscle Myoblast Cells: 80%
[1]
  amount after γ-irradiation of a 1% taurolidine solution: 780 mg
  content after γ-irradiation of a 1% taurolidine solution: 0.156%
COS-7 Fibroblasts [3]
  cell adhesion, fibroblasts: not detected
COS-7 Fibroblasts [3]; African green monkey, 0.25 %
  cell adhesion, fibroblasts: 80%
COS-7 Fibroblasts [3]; African green monkey, 5 min, 0.1 %
  Adhesion of COS-7 Fibroblasts: 100%
COS-7 Fibroblasts [3]; African green monkey, 5 min, 0.25 %
  Adhesion of COS-7 Fibroblasts: 100%
COS-7 Fibroblasts [3]; African green monkey, 5 min, 0.5 %
  Adhesion of COS-7 Fibroblasts: 100%
COS-7 Fibroblasts [3]; African green monkey, 10 min, 0.1 %
  Adhesion of COS-7 Fibroblasts: 100%
COS-7 Fibroblasts [3]; African green monkey, 10 min, 0.25 %
  Adhesion of COS-7 Fibroblasts: 100%
COS-7 Fibroblasts [3]; African green monkey, 10 min, 0.5 %
  Adhesion of COS-7 Fibroblasts: 95%
COS-7 Fibroblasts [3]; African green monkey, 20 min, 0.1 %
  Adhesion of COS-7 Fibroblasts: 100%
COS-7 Fibroblasts [3]; African green monkey, 20 min, 0.25 %
  Adhesion of COS-7 Fibroblasts: 90%
COS-7 Fibroblasts [3]; African green monkey, 20 min, 0.5 %
  Adhesion of COS-7 Fibroblasts: 90%
COS-7 Fibroblasts [3]; African green monkey, 60 min, 0.1 %
  Adhesion of COS-7 Fibroblasts: 100%
COS-7 Fibroblasts [3]; African green monkey, 60 min, 0.25 %
  Adhesion of COS-7 Fibroblasts: 90%
COS-7 Fibroblasts [3]; African green monkey, 60 min, 0.5 %
  Adhesion of COS-7 Fibroblasts: 80%
COS-7 Fibroblasts [3]; African green monkey, 120 min, 0.1 %
  Adhesion of COS-7 Fibroblasts: 90%
COS-7 Fibroblasts [3]; African green monkey, 120 min, 0.25 %
  Adhesion of COS-7 Fibroblasts: 80%
COS-7 Fibroblasts [3]; African green monkey, 120 min, 0.5 %
  Adhesion of COS-7 Fibroblasts: 80%

## OCO [methylene glycol]
[1]
  amount after γ-irradiation of a 1% taurolidine solution: 81 mg
  content after γ-irradiation of a 1% taurolidine solution: 0.0160%

## NCCS(N)(=O)=O [taurinamide]
[1]
  amount after γ-irradiation of a 1% taurolidine solution: 85.5 mg
  content after γ-irradiation of a 1% taurolidine solution: 0.0171%

## NCCS(=O)(=O)O [taurine]
[1]
  amount after γ-irradiation of a 1% taurolidine solution: 53 mg
  content after γ-irradiation of a 1% taurolidine solution: 0.0106%

## O=S1(=O)CCNCN1 [taurultam]
[4]; 0.1%, incubation 5 min
  Adhesion of C2C12 Muscle Myoblast Cells: 100%
[4]; 0.1%, incubation 5 min, listed as Taurultam
  Adhesion of C2C12 Muscle Myoblast Cells: 100%
[4]; 0.1%, incubation 10 min
  Adhesion of C2C12 Muscle Myoblast Cells: 100%
[4]; 0.1%, incubation 10 min, listed as Taurultam
  Adhesion of C2C12 Muscle Myoblast Cells: 100%
[4]; 0.1%, incubation 20 min
  Adhesion of C2C12 Muscle Myoblast Cells: 100%
[4]; 0.1%, incubation 20 min, listed as Taurultam
  Adhesion of C2C12 Muscle Myoblast Cells: 100%
[4]; 0.1%, incubation 60 min
  Adhesion of C2C12 Muscle Myoblast Cells: 90%
[4]; 0.1%, incubation 120 min
  Adhesion of C2C12 Muscle Myoblast Cells: 60%
[4]; 0.1%, incubation 120 min, listed as Taurultam
  Adhesion of C2C12 Muscle Myoblast Cells: 60%
[4]; 0.25%, incubation 5 min
  Adhesion of C2C12 Muscle Myoblast Cells: 100%
[4]; 0.25%, incubation 10 min
  Adhesion of C2C12 Muscle Myoblast Cells: 95%
[4]; 0.25%, incubation 20 min
  Adhesion of C2C12 Muscle Myoblast Cells: 90%
[4]; 0.25%, incubation 60 min
  Adhesion of C2C12 Muscle Myoblast Cells: 70%
[4]; 0.25%, incubation 120 min
  Adhesion of C2C12 Muscle Myoblast Cells: 60%
[4]; 0.25%, incubation periods of 60 and 120 minutes
  cell adhesion, muscle cells: 60-70%
[4]; 0.5%, incubation 5 min
  Adhesion of C2C12 Muscle Myoblast Cells: 95%
[4]; 0.5%, incubation 10 min
  Adhesion of C2C12 Muscle Myoblast Cells: 90%
[4]; 0.5%, incubation 20 min
  Adhesion of C2C12 Muscle Myoblast Cells: 90%
[4]; 0.5%, incubation 60 min
  Adhesion of C2C12 Muscle Myoblast Cells: 60%
[4]; 0.5%, incubation 120 min
  Adhesion of C2C12 Muscle Myoblast Cells: 50%
[4]; 0.5%, incubation periods of 60-120 minutes
  cell adhesion, muscle cells: 50-60%
[4]; all concentrations (0.1-0.5%), 2-hour incubation period
  cell adhesion, muscle cells: 50-60%
COS-7 Fibroblasts [5]; 0.1%, incubation 5 min
  Adhesion of COS-7 Fibroblasts: 100%
COS-7 Fibroblasts [5]; 0.1%, incubation 10 min
  Adhesion of COS-7 Fibroblasts: 100%
COS-7 Fibroblasts [5]; 0.1%, incubation 20 min
  Adhesion of COS-7 Fibroblasts: 90%
COS-7 Fibroblasts [5]; 0.1%, incubation 60 min
  Adhesion of COS-7 Fibroblasts: 80%
COS-7 Fibroblasts [5]; 0.1%, incubation 120 min
  Adhesion of COS-7 Fibroblasts: 70%
COS-7 Fibroblasts [5]; 0.1%, more extended incubation periods (60 and 120 minutes)
  cell adhesion, fibroblasts: limited adhesion was observed
COS-7 Fibroblasts [5]; 0.25%, incubation 5 min
  Adhesion of COS-7 Fibroblasts: 95%
COS-7 Fibroblasts [5]; 0.25%, incubation 10 min
  Adhesion of COS-7 Fibroblasts: 90%
COS-7 Fibroblasts [5]; 0.25%, incubation 20 min
  Adhesion of COS-7 Fibroblasts: 60%
COS-7 Fibroblasts [5]; 0.25%, incubation 60 min
  Adhesion of COS-7 Fibroblasts: 60%
COS-7 Fibroblasts [5]; 0.25%, incubation 120 min
  Adhesion of COS-7 Fibroblasts: 70%
COS-7 Fibroblasts [5]; 0.25%, incubation period of at least 20 minutes
  cell adhesion, fibroblasts: 60%
COS-7 Fibroblasts [5]; 0.5%, incubation 5 min
  Adhesion of COS-7 Fibroblasts: 95%
COS-7 Fibroblasts [5]; 0.5%, incubation 10 min
  Adhesion of COS-7 Fibroblasts: 90%
COS-7 Fibroblasts [5]; 0.5%, incubation 20 min
  Adhesion of COS-7 Fibroblasts: 70%
COS-7 Fibroblasts [5]; 0.5%, incubation 60 min
  Adhesion of COS-7 Fibroblasts: 60%
COS-7 Fibroblasts [5]; 0.5%, incubation 120 min
  Adhesion of COS-7 Fibroblasts: 40%
COS-7 Fibroblasts [5]; 0.5%, more extended incubation periods (beyond 10 minutes)
  cell adhesion, fibroblasts: ≥ 40%
COS-7 Fibroblasts [5]; most extreme conditions (0.5%, 1-2 h)
  cell adhesion, fibroblasts: 40-60%

Reference: patent publication US7928102B2, “Irradiated compositions and treatment of cancers with radiation in combination with taurolidine and/or taurultam” (Ed. Geistlich Soehne AG fuer Chemische Industrie, priority 2006, dated 2011)
